Results taken from the NIST ThermoML archive (doi:10.1016/j.jct.2012.06.031).
± gives the expanded uncertainty stated by the source.

Test: xn = mol fraction of the nth substance listed
Settings: 101 kPa, Liquid; for viscosity: Concentric cylinders viscometry; for mass density: Vibrating tube method

c1ccncc1 [pyridine] + CCCO
Settings | mass density [kg/m3] | viscosity [mPa·s]
288.15 K, x1 = 0.1001 | 829.179 ± 0.15 | 2.059 ± 0.011
288.15 K, x1 = 0.1998 | 849.304 ± 0.14 | 1.752 ± 0.011
288.15 K, x1 = 0.2999 | 868.538 ± 0.14 | 1.533 ± 0.01
288.15 K, x1 = 0.3998 | 887.029 ± 0.13 | 1.38 ± 0.0097
288.15 K, x1 = 0.5 | 904.882 ± 0.13 | 1.258 ± 0.0094
288.15 K, x1 = 0.5999 | 922.323 ± 0.13 | 1.189 ± 0.0093
288.15 K, x1 = 0.7 | 939.461 ± 0.12 | 1.127 ± 0.0091
288.15 K, x1 = 0.8 | 956.178 ± 0.12 | 1.091 ± 0.009
288.15 K, x1 = 0.8998 | 972.394 ± 0.12 | 1.065 ± 0.009
288.15 K, x1 = 1 | 988.061 ± 0.12 | 1.03 ± 0.0089
293.15 K, x1 = 0.1001 | 825.041 ± 0.15 | 1.839 ± 0.011
293.15 K, x1 = 0.1998 | 845.036 ± 0.14 | 1.577 ± 0.01
293.15 K, x1 = 0.2999 | 864.154 ± 0.14 | 1.392 ± 0.0097
293.15 K, x1 = 0.3998 | 882.542 ± 0.14 | 1.261 ± 0.0094
293.15 K, x1 = 0.5 | 900.296 ± 0.13 | 1.156 ± 0.0092
293.15 K, x1 = 0.5999 | 917.643 ± 0.13 | 1.096 ± 0.009
293.15 K, x1 = 0.7 | 934.697 ± 0.13 | 1.043 ± 0.0089
293.15 K, x1 = 0.8 | 951.331 ± 0.12 | 1.012 ± 0.0089
293.15 K, x1 = 0.8998 | 967.464 ± 0.12 | 0.9891 ± 0.0088
293.15 K, x1 = 1 | 983.038 ± 0.12 | 0.9588 ± 0.0087
298.15 K, x1 = 0.1001 | 820.881 ± 0.15 | 1.651 ± 0.01
298.15 K, x1 = 0.1998 | 840.744 ± 0.14 | 1.426 ± 0.0098
298.15 K, x1 = 0.2999 | 859.747 ± 0.14 | 1.269 ± 0.0094
298.15 K, x1 = 0.3998 | 878.034 ± 0.14 | 1.157 ± 0.0092
298.15 K, x1 = 0.5 | 895.691 ± 0.13 | 1.066 ± 0.009
298.15 K, x1 = 0.5999 | 912.947 ± 0.13 | 1.014 ± 0.0089
298.15 K, x1 = 0.7 | 929.913 ± 0.13 | 0.9678 ± 0.0087
298.15 K, x1 = 0.8 | 946.465 ± 0.12 | 0.942 ± 0.0087
298.15 K, x1 = 0.8998 | 962.52 ± 0.12 | 0.9212 ± 0.0086
298.15 K, x1 = 1 | 978.006 ± 0.12 | 0.8943 ± 0.0086
303.15 K, x1 = 0.1001 | 816.69 ± 0.15 | 1.488 ± 0.01
303.15 K, x1 = 0.1998 | 836.425 ± 0.14 | 1.291 ± 0.0095
303.15 K, x1 = 0.2999 | 855.316 ± 0.14 | 1.165 ± 0.0092
303.15 K, x1 = 0.3998 | 873.5 ± 0.14 | 1.064 ± 0.009
303.15 K, x1 = 0.5 | 891.065 ± 0.13 | 0.9865 ± 0.0088
303.15 K, x1 = 0.5999 | 908.231 ± 0.13 | 0.9414 ± 0.0087
303.15 K, x1 = 0.7 | 925.114 ± 0.13 | 0.9013 ± 0.0086
303.15 K, x1 = 0.8 | 941.586 ± 0.12 | 0.879 ± 0.0086
303.15 K, x1 = 0.8998 | 957.564 ± 0.12 | 0.8608 ± 0.0085
303.15 K, x1 = 1 | 972.967 ± 0.12 | 0.8355 ± 0.0085
308.15 K, x1 = 0.1001 | 812.466 ± 0.15 | 1.355 ± 0.0097
308.15 K, x1 = 0.1998 | 832.074 ± 0.15 | 1.179 ± 0.0092
308.15 K, x1 = 0.2999 | 850.857 ± 0.14 | 1.065 ± 0.009
308.15 K, x1 = 0.3998 | 868.942 ± 0.14 | 0.9819 ± 0.0088
308.15 K, x1 = 0.5 | 886.415 ± 0.14 | 0.9149 ± 0.0086
308.15 K, x1 = 0.5999 | 903.494 ± 0.13 | 0.8753 ± 0.0086
308.15 K, x1 = 0.7 | 920.29 ± 0.13 | 0.8408 ± 0.0085
308.15 K, x1 = 0.8 | 936.687 ± 0.13 | 0.8222 ± 0.0084
308.15 K, x1 = 0.8998 | 952.593 ± 0.12 | 0.8059 ± 0.0084
308.15 K, x1 = 1 | 967.913 ± 0.12 | 0.7837 ± 0.0084
313.15 K, x1 = 0.1001 | 808.203 ± 0.15 | 1.205 ± 0.0093
313.15 K, x1 = 0.1998 | 827.676 ± 0.15 | 1.076 ± 0.009
313.15 K, x1 = 0.2999 | 846.364 ± 0.14 | 0.9804 ± 0.0088
313.15 K, x1 = 0.3998 | 864.355 ± 0.14 | 0.9082 ± 0.0086
313.15 K, x1 = 0.5 | 881.735 ± 0.14 | 0.8506 ± 0.0085
313.15 K, x1 = 0.5999 | 898.73 ± 0.13 | 0.8167 ± 0.0084
313.15 K, x1 = 0.7 | 915.449 ± 0.13 | 0.786 ± 0.0084
313.15 K, x1 = 0.8 | 931.765 ± 0.13 | 0.7718 ± 0.0083
313.15 K, x1 = 0.8998 | 947.604 ± 0.12 | 0.7566 ± 0.0083
313.15 K, x1 = 1 | 962.849 ± 0.12 | 0.7354 ± 0.0083
318.15 K, x1 = 0.1001 | 803.899 ± 0.15 | 1.103 ± 0.0091
318.15 K, x1 = 0.1998 | 823.264 ± 0.15 | 0.9855 ± 0.0088
318.15 K, x1 = 0.2999 | 841.834 ± 0.14 | 0.9038 ± 0.0086
318.15 K, x1 = 0.3998 | 859.731 ± 0.14 | 0.8426 ± 0.0085
318.15 K, x1 = 0.5 | 877.027 ± 0.14 | 0.7926 ± 0.0084
318.15 K, x1 = 0.5999 | 893.938 ± 0.13 | 0.7629 ± 0.0083
318.15 K, x1 = 0.7 | 910.581 ± 0.13 | 0.7363 ± 0.0083
318.15 K, x1 = 0.8 | 926.83 ± 0.13 | 0.7244 ± 0.0082
318.15 K, x1 = 0.8998 | 942.596 ± 0.12 | 0.711 ± 0.0082
318.15 K, x1 = 1 | 957.769 ± 0.12 | 0.6912 ± 0.0082
323.15 K, x1 = 0.1001 | 799.541 ± 0.15 | 1.009 ± 0.0089
323.15 K, x1 = 0.1998 | 818.793 ± 0.15 | 0.9116 ± 0.0086
323.15 K, x1 = 0.2999 | 837.265 ± 0.14 | 0.844 ± 0.0085
323.15 K, x1 = 0.3998 | 855.071 ± 0.14 | 0.7875 ± 0.0084
323.15 K, x1 = 0.5 | 872.286 ± 0.14 | 0.7452 ± 0.0083
323.15 K, x1 = 0.5999 | 889.121 ± 0.13 | 0.719 ± 0.0082
323.15 K, x1 = 0.7 | 905.688 ± 0.13 | 0.6954 ± 0.0082
323.15 K, x1 = 0.8 | 921.867 ± 0.13 | 0.6813 ± 0.0081
323.15 K, x1 = 0.8998 | 937.566 ± 0.13 | 0.6741 ± 0.0081
323.15 K, x1 = 1 | 952.673 ± 0.12 | 0.6507 ± 0.0081
